Reference: patent US6646137B1, “Non-peptide GnRH agents” (priority 1998, dated 2003)

biological target: T1, human GnRH receptor (Homo sapiens, UniProt P30968); assay: GnRH receptor competitive radioligand binding assay (125I-GnRH-A, HEK 293 cell membranes); conditions: compound at 10 μM; average of 1st and 2nd test; read-out: Average % Remaining (percent of specific binding remaining)
T1 construct: The cDNA for the human GnRH receptor is cloned into the plasmid expression vector, pcDNA 3; expressed in transfected cells; host or cells: HEK 293 cells, stably transfected (pcDNA 3); membrane preparation
T1 sequence (P30968 1-328): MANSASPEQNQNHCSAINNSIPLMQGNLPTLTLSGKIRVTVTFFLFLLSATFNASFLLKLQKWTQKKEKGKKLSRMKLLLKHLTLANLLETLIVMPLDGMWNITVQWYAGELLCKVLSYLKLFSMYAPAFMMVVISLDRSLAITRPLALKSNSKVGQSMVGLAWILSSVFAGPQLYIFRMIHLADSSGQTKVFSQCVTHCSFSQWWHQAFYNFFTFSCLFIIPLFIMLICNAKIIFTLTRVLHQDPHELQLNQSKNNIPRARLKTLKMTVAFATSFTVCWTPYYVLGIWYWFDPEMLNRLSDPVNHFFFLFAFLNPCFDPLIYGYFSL
Procedure, shortened: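 Membranes from HEK 293 cells stably expressing human GnRH receptor (0.5–1.0 mg/mL) incubated 1 h at room temperature with ~0.05–0.1 nM 125I-GnRH-A plus competitor in 50 mM HEPES pH 7.4, 1 mM EDTA, 2.5 mM MgCl2, 0.1% BSA. Bound label collected by filtration onto PEI-soaked filters and counted by scintillation.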

Point of comparison: `CC(C)(C)c1ccc(CN(Cc2ccc(CNC(=N)N)cc2)C(=O)c2ccccc2)cc1` [Compound 2], remaining activity at 10 µM 57%. Against it:
- CN(C)COc1ccc(CN(CC2CCC(CNC(=N)N)CC2)C(=O)c2cc3ccccc3s2)cc1 (stereo not drawn) [Compound 74] — lower, 50%
- Cc1cc2c(cc1CN(Cc1ccc(CNC(=N)N)cc1)C(=O)c1ccc(Cl)nc1)C(C)(C)CCC2(C)C [Compound 16] — lower, 49%
- Cc1cc2c(cc1CN(CC1CCC(CNC(=N)N)CC1)C(=O)c1ccco1)C(C)(C)CCC2(C)C (stereo not drawn) [Compound 80] — lower, -4%
- CC(=O)N(Cc1ccc(OCc2ccccc2)c(OCc2ccccc2)c1)CC1CCCC(CNC(=N)N)C1 (stereo not drawn) [Compound 63] — lower, 48%
- Cc1cc2c(cc1CN(CC1CCC(CNC(=N)N)CC1)C(=O)c1cnn(-c3ccccc3)c1C(F)(F)F)C(C)(C)CCC2(C)C (stereo not drawn) [Compound 118] — higher, 60%
- N=C(N)NCc1ccc(CN(Cc2ccc(OCc3ccccc3)c(OCc3ccccc3)c2)C(=O)c2ccccc2)cc1 [Compound 19] — lower, 45%
- N=C(N)NCCCCN(CC12CC=CCC1C1CC=CCC1O2)C(=O)c1ccc2ccccc2c1 (stereo not drawn) [Compound 26] — lower, 36%
- CN(C)Cc1ccc(CN(Cc2ccc(OCc3ccccc3)c(OCc3ccccc3)c2)C(=O)c2cccs2)cc1 [Compound 69] — the same, 57%
- Cc1cc2c(cc1CN(Cc1ccc(CNC(=N)N)cc1)C(=O)c1ccco1)C(C)(C)CCC2(C)C [Compound 13] — lower, 13%
- N=C(N)NCCCCN(Cc1ccc(OCc2ccccc2)c(OCc2ccccc2)c1)C(=O)c1cccc2ccccc12 [Compound 34] — lower, 51%

same assay, conditions: compound at 10 μM; crude compounds; 125I-GnRH-A; lower value = higher inhibition; read-out: % Remaining 1st Test (percent of specific binding remaining)

Point of comparison: `N=C(N)NCCCCN(Cc1ccc(OCc2ccccc2)c(OCc2ccccc2)c1)C(=O)c1cccc2ccccc12` [Compound 34], remaining activity at 10 µM 45%. Against it:
- CN(C)COc1ccc(CN(CC2CCC(CNC(=N)N)CC2)C(=O)c2cc3ccccc3s2)cc1 (stereo not drawn) [Compound 74] — higher, 51%
- Cc1cc2c(cc1CN(Cc1ccc(CNC(=N)N)cc1)C(=O)c1ccc(Cl)nc1)C(C)(C)CCC2(C)C [Compound 16] — higher, 50%
- Cc1cc2c(cc1CN(CC1CCC(CNC(=N)N)CC1)C(=O)c1ccco1)C(C)(C)CCC2(C)C (stereo not drawn) [Compound 80] — lower, -4%
- CC(=O)N(Cc1ccc(OCc2ccccc2)c(OCc2ccccc2)c1)CC1CCCC(CNC(=N)N)C1 (stereo not drawn) [Compound 63] — higher, 49%
- Cc1cc2c(cc1CN(CC1CCC(CNC(=N)N)CC1)C(=O)c1cnn(-c3ccccc3)c1C(F)(F)F)C(C)(C)CCC2(C)C (stereo not drawn) [Compound 118] — higher, 62%
- N=C(N)NCc1ccc(CN(Cc2ccc(OCc3ccccc3)c(OCc3ccccc3)c2)C(=O)c2ccccc2)cc1 [Compound 19] — higher, 47%
- N=C(N)NCCCCN(CC12CC=CCC1C1CC=CCC1O2)C(=O)c1ccc2ccccc2c1 (stereo not drawn) [Compound 26] — lower, 35%
- CN(C)Cc1ccc(CN(Cc2ccc(OCc3ccccc3)c(OCc3ccccc3)c2)C(=O)c2cccs2)cc1 [Compound 69] — higher, 59%
- Cc1cc2c(cc1CN(Cc1ccc(CNC(=N)N)cc1)C(=O)c1ccco1)C(C)(C)CCC2(C)C [Compound 13] — lower, 14%
- CC(C)(C)c1ccc(CN(Cc2ccc(CNC(=N)N)cc2)C(=O)c2ccccc2)cc1 [Compound 2] — higher, 59%

same assay, conditions: compound at 10 μM; crude compounds; 125I-GnRH-A; lower value = higher inhibition; read-out: % Remaining 2nd Test (percent of specific binding remaining)

Point of comparison: `N=C(N)NCc1ccc(CN(Cc2ccc(OCc3ccccc3)c(OCc3ccccc3)c2)C(=O)c2ccccc2)cc1` [Compound 19], remaining activity at 10 µM 42%. Against it:
- CN(C)COc1ccc(CN(CC2CCC(CNC(=N)N)CC2)C(=O)c2cc3ccccc3s2)cc1 (stereo not drawn) [Compound 74] — higher, 48%
- Cc1cc2c(cc1CN(Cc1ccc(CNC(=N)N)cc1)C(=O)c1ccc(Cl)nc1)C(C)(C)CCC2(C)C [Compound 16] — higher, 47%
- Cc1cc2c(cc1CN(CC1CCC(CNC(=N)N)CC1)C(=O)c1ccco1)C(C)(C)CCC2(C)C (stereo not drawn) [Compound 80] — lower, -4%
- CC(=O)N(Cc1ccc(OCc2ccccc2)c(OCc2ccccc2)c1)CC1CCCC(CNC(=N)N)C1 (stereo not drawn) [Compound 63] — higher, 47%
- Cc1cc2c(cc1CN(CC1CCC(CNC(=N)N)CC1)C(=O)c1cnn(-c3ccccc3)c1C(F)(F)F)C(C)(C)CCC2(C)C (stereo not drawn) [Compound 118] — higher, 58%
- N=C(N)NCCCCN(CC12CC=CCC1C1CC=CCC1O2)C(=O)c1ccc2ccccc2c1 (stereo not drawn) [Compound 26] — lower, 37%
- CN(C)Cc1ccc(CN(Cc2ccc(OCc3ccccc3)c(OCc3ccccc3)c2)C(=O)c2cccs2)cc1 [Compound 69] — higher, 54%
- Cc1cc2c(cc1CN(Cc1ccc(CNC(=N)N)cc1)C(=O)c1ccco1)C(C)(C)CCC2(C)C [Compound 13] — lower, 11%
- N=C(N)NCCCCN(Cc1ccc(OCc2ccccc2)c(OCc2ccccc2)c1)C(=O)c1cccc2ccccc12 [Compound 34] — higher, 57%
- CC(C)(C)c1ccc(CN(Cc2ccc(CNC(=N)N)cc2)C(=O)c2ccccc2)cc1 [Compound 2] — higher, 54%
